From patent publication US20160317418A1, “METHOD OF IMPROVING THE APPEARANCE OF SKIN AND COMPOSITIONS THEREFOR” (The Procter & Gamble Company, priority 2015, published 2016)
Entries after “also recorded” stand apart in the source; their conditions may differ.

What was measured:
[1] = tested on: human neonatal keratinocytes; assay: Melanosome Uptake Assay (CFDA-labeled melanosomes, flow cytometry); assay type: cell-based; details: for % Uptake: 0.0025 w/v % in keratinocyte medium, fraction of keratinocytes with detectable CFDA, vehicle control 36; for Rate of Melanosome Uptake Versus Control: 0.0025 w/v %, vehicle control = 100%
Description: Melanosome uptake was determined as follows. Carboxyfluorescein diacetate (“CFDA”) (available from Sigma, St. Louis, Mo.) labeled melanosomes were prepared by incubating CFDA dye in SKMEL-188 culture cells (available from Sloan Kettering Institute) for 2 days at 37° C. in a THERMO SCIENTIFIC FORMA brand CO2 incubator (available from Fisher Scientific, Waltham, Mass.). On day 3 of the test, melanosomes were isolated from SKMEL-188 cells by step density centrifugation with sucrose solutions layered with different densities, which is well known in the art. Melanosomes were taken from the 1.6 M-2.0 M sucrose layers. The isolated melanosomes were placed in each well of a 6-well plate along with human neonatal keratinocytes (available from Thermo) (approximately 50,000 keratinocytes/well). 2 ml of the appropriate medium (i.e., the test composition, the positive control or the vehicle control) was added to each of the wells to produce […] (i.e., 3 replicates of each of three composition tested). The test composition was made by adding nicotinamide riboside chloride powder (available from Chromadex, Irvine, Calif.) to EPILIFE brand keratinocyte medium to produce a solution of 0.0025 w/v % nicotinamide riboside. The positive control was made by adding niacinamide to EPILIFE brand keratinocyte medium to produce a solution of 0.0025 w/v % niacinamide. Unmodified keratinocyte medium was used as a vehicle control.
The resulting test plates were incubated for two days in EPILIFE brand keratinocyte medium. On day 6 of the test, the keratinocytes were detached from the plates using trypsin and fluorescent-label counted by flow cytometry using an LSRFortessa brand flow cytometer (available from Becton Dickinson, NJ). The percentage of cells that had fluorescence (from CFDA label) was used as a metric to determine melanosome uptake. Keratinocytes containing detectable levels of CFDA were counted as a fraction of all keratinocytes passing through the flow cytometer (indicated as % uptake in Table 2). A higher percentage corresponds to a higher level of melanosome uptake into the keratinocytes.

[2] = tested on: HMGB1 protein released from keratinocytes; assay: In Vitro UV Stress Test: HMGB1 released from UVB-exposed keratinocytes (ELISA); assay type: cell-based, human; details: for HMGB1 Released: 0.001 w/v % after 15 mJ/cm^2 UVB, 24 hours, UV untreated 19.4, no UV 10.5; for effect on amount of HMGB1 protein released by keratinocytes exposed to UVB (in words): compared to the untreated UVB exposed cells
Description: This example compares the ability of nicotinamide riboside and niacinamide to reduce the amount of HMGB1 protein released from keratinocytes subjected to stress from ultraviolet (“UV”) radiation. Human neonatal keratinocytes (available from Thermo) were placed in each well of four 12-well plates. Each well also contained 2 ml of EPILIFE brand keratinocyte medium. The plates were incubated at 37° C. in a CO2 incubator until cell confluency reached 70%. At this point, the cells, except for the negative control, were exposed to 15 mJ/cm^2 UVB (i.e., UV radiation with a wavelength of from 315-280 nm) in a BIO-SUN brand UV irradiating system (available from Vilber Lourmat, France). After UVB exposure, the keratinocyte medium in each well was replaced with an appropriate medium (i.e., niacinamide medium, nicotinamide riboside medium or a control medium) to produce the test plates. The test plates were incubated for 24 hours at 37° C. in a CO2 incubator, after which the medium in each cell was removed and the HMGB1 level measured using a conventional HMGB1 ELISA kit (REF # ST51011, available from IBL International, Canada) according to the manufacturer's instructions. The test media were made by adding either niacinamide or nicotinamide riboside to EPILIFE brand keratinocyte medium to produce a 0.001 w/v % solution. The control medium was unmodified keratinocyte medium.

## NC(=O)c1cccnc1 [niacinamide, reference compound]
[1]
  % Uptake: 26%
  Rate of Melanosome Uptake Versus Control: 72%
[1]; compared to the vehicle control
  effect on uptake of melanosomes from melanocytes into keratinocytes (in words): inhibit the rate of melanosome uptake
[2]
  HMGB1 Released: 17.8 pg/mL
  effect on amount of HMGB1 protein released by keratinocytes exposed to UVB (in words): no significant effect

## Nicotinamide riboside [NR]
[1]
  % Uptake: 67%
  Rate of Melanosome Uptake Versus Control: 186%
[2]
  HMGB1 Released: 11.5 pg/mL
  effect on amount of HMGB1 protein released by keratinocytes exposed to UVB (in words): reduces the amount of HMGB1 protein released from keratinocytes; also recorded: released less HMGB1 protein
